Target: Histamine H3 receptor (Rattus norvegicus, UniProt Q9QYN8)
Test: Histamine H3 receptor affinity of compound was determined in rat cortical membranes using the H3 selective agonist ligand, [3H]N-alpha-methylhistamine
Format: cell membranes, Membrane

Histamine H3 receptor, sequence (Q9QYN8 whole entry): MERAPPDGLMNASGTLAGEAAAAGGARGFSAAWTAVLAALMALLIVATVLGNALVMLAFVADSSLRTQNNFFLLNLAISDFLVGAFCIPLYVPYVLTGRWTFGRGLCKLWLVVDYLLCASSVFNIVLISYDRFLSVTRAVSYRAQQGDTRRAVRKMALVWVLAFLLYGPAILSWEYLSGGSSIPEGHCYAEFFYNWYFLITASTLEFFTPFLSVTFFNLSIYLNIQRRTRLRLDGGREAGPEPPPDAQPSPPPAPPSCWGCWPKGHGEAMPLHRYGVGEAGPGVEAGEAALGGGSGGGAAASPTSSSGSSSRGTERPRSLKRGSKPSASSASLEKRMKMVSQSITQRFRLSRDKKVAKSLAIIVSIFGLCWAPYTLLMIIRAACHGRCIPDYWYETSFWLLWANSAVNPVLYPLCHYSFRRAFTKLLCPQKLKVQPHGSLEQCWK

Ic1ccc(COCCCc2c[nH]cn2)cc1 [IODOPROXYFAN]
Ki: 0.3 nM
